Assay in all cases: growth of human tumour cells (NCI), 48 h
The subject of assay [1] is SK-MEL-28 melanoma.
Assay [2] has as its system CCRF-CEM leukemia.
Assay [3] deals with UACC-257 melanoma.
The test system of assay [4] is MCF7 breast.
In assay [5] the test system is UACC-62 melanoma.
Assay [6] deals with A549 NSCLC.
Assay [7] deals with HT29 colon.
Assay [8] relates to SW-620 colon.
Assay [9] deals with SF-295 CNS.
Assay [10] relates to SK-MEL-5 melanoma.

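Method: 48-hour compound exposure of cells in 96-well plates, five concentrations, linear interpolation of endpoints. At the TGI there is no net growth.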

These results are taken from PubChem BioAssay (NCI).

In the case of `CC(C)OP(=O)(OC(C)C)C(C(C)C)N(C)/C(N)=N\C1=NC(C(F)(F)F)(C(F)(F)F)N=C(C(C(F)(F)F)C(F)(F)F)O1` (centres undefined), the TGI turned out to be 12.4 µM in [1]; 4.88 µM in assay [2]; 10.3 µM in assay [3]; 32 µM in [4]; 4.7 µM in assay [5]; 14.6 µM in assay [6]. Besides, the TGI in assay [7] worked out at 6.98 µM; in [8], 5.48 µM; in assay [9], 18 µM.
On to `COc1cc2c(cc1OC)-c1[nH]c3ccc(C#N)cc3c1CC(=O)N2`, for which the TGI in assay [1], in assay [2], in [3], in [4], in assay [5] and in [6] was over 100 µM in each case. In addition, the TGI was over 100 µM in assay [7], over 100 µM in [8], 28 µM in [10] and over 100 µM in assay [9].
Turning to `COc1ccccc1C1CC(=O)CC(c2ccccc2OC)C12C(=O)NC(=S)NC2=O` (centres undefined), the TGI in assay [1] was 95.6 µM; in assay [2], over 100 µM; in [3] it was over 100 µM; in [4], over 100 µM; in [5], over 100 µM; in assay [7], over 100 µM. Also, the TGI in assay [8], in [10] and in assay [9] was over 100 µM throughout.
Take `CC1C2CC(CC(=O)N2)C1(C)C` (centres undefined): the TGI in assay [1], in assay [2], in assay [3], in [4], in assay [5] and in assay [6] was over 100 µM in each case. In addition, the TGI in assay [7], in [8], in assay [10] and in assay [9] was over 100 µM each time.
For the compound `NC(=O)C(Nc1c(Cl)cccc1Cl)c1cc2cc(Br)ccc2nc1Cl` (centres undefined), the TGI in assay [1], in assay [2], in assay [3], in assay [4], in assay [5] and in assay [6] was over 100 µM each time. The TGI in [7], in assay [8], in assay [10] and in assay [9] was over 100 µM throughout.
With `COc1ccc(/C=C2/C(C)=NN(c3cccc(Cl)c3)/C2=N/c2nc3ccccc3s2)cc1`, the TGI was determined as 46.9 µM in [1]; 92.7 µM in assay [2]; 55.7 µM in [3]; 84.4 µM in assay [4]; 37.8 µM in assay [7]; 52 µM in assay [8]. For the same compound, the TGI in assay [10] amounted to 33.7 µM; in assay [9], 49.5 µM.
`COc1cc(OCc2ccc3nc(-c4ccccc4)c(N)nc3c2)cc(OC)c1OC`: the TGI in assay [1] came out at 49 µM; in assay [2], 61.9 µM; in [3] it was 49.7 µM; in [4] it was 56.8 µM; in [5] it was 28.2 µM; in assay [6], 61.2 µM. The values for the TGI in assay [8], in [10] and in assay [9] were over 100 µM, 24 µM and 68.7 µM, respectively.
Take `CCc1nnc(CC)n1NCCCC(=O)O`: the TGI in assay [1], in assay [2], in assay [3], in [4], in assay [5] and in assay [6] was over 100 µM each time. For the same compound, the TGI in assay [7], in assay [8], in assay [10] and in assay [9] was over 100 µM throughout.
As for `CSC1=N[C@H](c2ccccc2)CS1`, the TGI in [1], in assay [2], in assay [3], in [4], in [5] and in assay [6] was over 100 µM in each case. Also, the TGI in [7], in [8], in assay [10] and in assay [9] was over 100 µM throughout.
`CC(C)=CCOc1cc(NC(=S)c2ccoc2C)ccc1Cl`: the TGI in assay [1], in assay [2], in assay [3], in [4], in [5] and in [6] was over 100 µM in each case. Moreover, the TGI in [7], in [8], in [10] and in assay [9] was over 100 µM in each case.
Consider `C=C(c1ccccc1)C1ON(C)CCc2cc(OC)c(OC)cc21` (centres undefined), for which the TGI is over 100 µM in [1]; over 100 µM in assay [2]; over 100 µM in assay [3]; 48.3 µM in assay [4]; over 100 µM in assay [5]; over 100 µM in assay [6]. In addition, the TGI in assay [7] is over 100 µM; in [8] it was over 100 µM; in assay [10], 66 µM; in [9] it was over 100 µM.
In the case of `Oc1ccccc1/C=N/Nc1nnc2c3ccccc3c3ccccc3c2n1`, the TGI in [1] is over 100 µM; in assay [2], over 100 µM; in [3] it was 64.7 µM; in assay [4], over 100 µM; in assay [5] it was over 100 µM; in [6] it was over 100 µM. For the same compound, the TGI in [7], in assay [8], in assay [10] and in assay [9] was over 100 µM in each case.
Consider `C/C(=N\N)C(CN(C)C)C(c1ccccc1)c1c(O)c2ccccc2oc1=O` (centres undefined), for which the TGI in assay [1], in assay [2], in assay [3], in assay [4], in assay [5] and in assay [6] was over 100 µM each time. In addition, the TGI in [7], in assay [8], in [10] and in assay [9] was over 100 µM throughout.
`COc1cc(S(=O)(=O)Nc2ccc(-c3csc(N4C(=O)CSC4c4cccs4)n3)cc2)ccc1Cl` (centres undefined): the TGI in assay [1] is 39.5 µM; in assay [2], 95.1 µM; in assay [3], 46 µM; in assay [4], 31.7 µM; in assay [6], over 100 µM; in assay [7], over 100 µM. In addition, the results for the TGI in assay [8], in [10] and in assay [9] were 68.5 µM, over 100 µM and over 100 µM, respectively.
